Data taken from patent publication US11420970B1 (NOVARTIS AG, priority 2019, dated 2022).
pIC50: −log10 of the molar value. Like-named read-outs stand apart in the source and are kept apart here.

Columns and labels:
[1] = molecular target: NSD2 [1-1365] (Homo sapiens (Human), UniProt O96028); assay: LC-MS/MS-based NSD2 enzymatic assay (SAH production); assay type: biochemical; settings: read-out: NSD2 IC50
Method in brief: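 SAH formed was measured by LC-MS/MS using d4-SAH as internal standard and an SAH calibration curve. Compounds were preincubated 20 min with NSD2 [1-1365] and SAM; mouse-liver nucleosome then started a 90 min room-temperature reaction (8 nM enzyme, 1 μM SAM, 400 nM nucleosome final, pH 8.0), stopped with TFA.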

[2] = tested on: cellular H3K36me2 level in multiple myeloma cell line KMS11 (t(4;14)+); assay: H3K36me2 cellular ELISA assay in KMS11-Par line; assay type: cell-based; settings: Homo sapiens, KMS-11, ELISA, read-out: H3K36me2 ELISA in KMS11-Par
Description: H3K36Me2 Cellular ELISA Assay in KMS11-Par Line
An ELISA (enzyme-linked immunosorbent assay) based assay was used to test the ability of candidate compound to reduce cellular H3K36me2 level in multiple myeloma cell line KMS11 (t(4;14)+). KMS11 (Horizon Discovery Ltd.) cells are maintained in RPM11640 media with 12.5% FBS and 50 U/ml Penicillin-Streptomycin. For assay compound treatment, single cell suspension was prepared in Opti-MEM supplemented with B-27 and N2 supplement (Invitrogen 11058-021, 17504-044, 17502-048) for ELISA and in maintenance media for cellTiter Glo (CTG) viability assay. One day prior to cell treatment, 1,250 KMS11 cells were seeded into 384-well Greiner CellStar TC plate (Greiner #781086) at the final volume of 30 μL/well.
Cells were treated with tested compounds at the desired concentration for 72 hours. Crude histone lysate was extracted by 0.4M HCl following neutralization by 0.5M Sodium phosphate, dibasic (Na2HPO4), pH ˜12.5. Equal amount of histone lysate was loaded to Corning 384-well high biding plate (Corning #3577, black) for H3K36m2 and to Thermo 384-well high binding Nunc plate (Thermo #460372, white) for total H3.
Histone bound plates were washed and blocked with 5% BSA. […] The abundance of H3K36me2 and total H3 was measured by Chemiluminesce on a plate reader. Cell viability was monitored on a parallel seeded plate with CellTiter-Glo reagent (Promega #G7573).

[3] = NSD2 biochemical activity, class symbols
[4] = KMS11-Par line (t(4;14)+), 72 hours treatment

Sequence of NSD2 [1-1365] (O96028 whole entry): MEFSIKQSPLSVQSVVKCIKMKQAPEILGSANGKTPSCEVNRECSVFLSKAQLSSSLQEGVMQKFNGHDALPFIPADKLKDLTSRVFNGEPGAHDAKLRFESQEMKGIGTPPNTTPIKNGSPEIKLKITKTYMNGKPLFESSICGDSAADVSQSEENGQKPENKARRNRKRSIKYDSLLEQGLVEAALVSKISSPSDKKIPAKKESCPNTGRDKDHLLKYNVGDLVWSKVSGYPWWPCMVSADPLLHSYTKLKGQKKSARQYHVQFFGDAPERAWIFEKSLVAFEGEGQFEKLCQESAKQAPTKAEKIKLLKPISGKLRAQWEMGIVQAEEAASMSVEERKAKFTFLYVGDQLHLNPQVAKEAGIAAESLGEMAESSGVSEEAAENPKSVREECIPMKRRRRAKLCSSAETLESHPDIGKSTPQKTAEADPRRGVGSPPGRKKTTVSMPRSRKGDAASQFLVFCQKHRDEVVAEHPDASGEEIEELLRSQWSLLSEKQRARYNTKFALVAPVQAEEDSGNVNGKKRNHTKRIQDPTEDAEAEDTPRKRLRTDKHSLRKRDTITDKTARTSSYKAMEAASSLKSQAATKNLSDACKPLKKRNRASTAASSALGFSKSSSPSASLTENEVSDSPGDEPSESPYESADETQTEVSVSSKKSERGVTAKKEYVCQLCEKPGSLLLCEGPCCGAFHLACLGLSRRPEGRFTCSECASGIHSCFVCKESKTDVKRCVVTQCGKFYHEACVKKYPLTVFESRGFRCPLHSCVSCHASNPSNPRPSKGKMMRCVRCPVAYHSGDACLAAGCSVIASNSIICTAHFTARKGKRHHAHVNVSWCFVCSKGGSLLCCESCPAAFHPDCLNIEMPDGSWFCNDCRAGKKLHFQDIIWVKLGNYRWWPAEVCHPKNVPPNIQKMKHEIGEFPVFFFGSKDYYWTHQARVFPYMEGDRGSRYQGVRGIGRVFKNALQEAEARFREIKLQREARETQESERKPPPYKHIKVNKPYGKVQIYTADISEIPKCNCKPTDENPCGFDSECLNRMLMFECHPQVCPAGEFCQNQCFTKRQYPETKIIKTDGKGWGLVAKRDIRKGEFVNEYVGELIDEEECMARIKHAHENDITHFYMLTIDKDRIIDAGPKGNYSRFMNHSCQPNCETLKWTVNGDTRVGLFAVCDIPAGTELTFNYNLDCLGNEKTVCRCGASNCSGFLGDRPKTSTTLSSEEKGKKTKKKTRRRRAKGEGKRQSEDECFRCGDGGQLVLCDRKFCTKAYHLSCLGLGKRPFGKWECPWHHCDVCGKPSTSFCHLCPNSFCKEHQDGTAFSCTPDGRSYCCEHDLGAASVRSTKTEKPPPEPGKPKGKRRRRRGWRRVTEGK

| SMILES | pIC50 [1, 3] | pIC50 [2, 4] | pIC50 [1] | pIC50 ([2]; KMS11-Par line, 72 hours) |
| --- | --- | --- | --- | --- |
| Nc1ncnc2c1ncn2Cc1cc(-c2ccc(F)c(F)c2)ncc1N1CCC[C@](N)(Cc2cnccn2)C1 [Example 74, (S)-9-((5-(3-amino-3-(pyrazin-2-ylmethyl)piperidin-1-yl)-2-(3,4-difluorophenyl)pyridin-4-yl)methyl)-9H-purin-6-amine] | 6.00 to 8.00 | 5.37 | – | – |
| C=CC(=O)Nc1ccc(-c2cc(Cn3cnc4c(N)ncnc43)c(N3CCCC(N)(CC(F)F)C3)cn2)cc1 (stereo not drawn) [Example 76, N-(4-(5-(3-amino-3-(2,2-difluoroethyl)piperidin-1-yl)-4-((6-amino-9H-purin-9-yl)methyl)pyridin-2-yl)phenyl)acrylamide] | 6.00 to 8.00 | 5.67 | – | – |
| CCO[C@H](C)C1(N)CCCN(c2cnc(-c3ccc(F)c(F)c3)cc2Cn2cnc3c(N)ncnc32)C1 (stereo partly drawn) [Example 99, 9-((5-(3-amino-3-((R)-1-ethoxyethyl)piperidin-1-yl)-2-(3,4-difluorophenyl)pyridin-4-yl)methyl)-9H-purin-6-amine] | 6.00 to 8.00 | 4.68 | – | – |
| Cc1cc2c(cnn2C)cc1-c1cc(Cn2cnc3c(N)ncnc32)c(N2CCC[C@](N)([C@@H](O)C(F)F)C2)cn1 [Example 136, (R)-1-((R)-3-amino-1-(4-((6-amino-9H-purin-9-yl)methyl)-6-(1,6-dimethyl-1H-indazol-5-yl)pyridin-3-yl)piperidin-3-yl)-2,2-difluoroethan-1-ol] | 6.00 to 8.00 | 5.06 | – | – |
| Cc1cccc(C2(N)CCCN(c3cnc(-c4ccc(F)c(F)c4)cc3Cn3cnc4c(N)ncnc43)C2)n1 (stereo not drawn) [Example 177, 9-((5-(3-amino-3-(6-methylpyridin-2-yl)piperidin-1-yl)-2-(3,4-difluorophenyl)pyridin-4-yl)methyl)-9H-purin-6-amine] | – | – | 8.00 to 9.00 | 6.39 |
| Nc1ncnc2c1ncn2Cc1cc(-c2ccc(F)c(F)c2)ncc1N1CCC[C@](N)(c2ncccc2F)C1 [Example 199, (R)-9-((5-(3-amino-3-(3-fluoropyridin-2-yl)piperidin-1-yl)-2-(3,4-difluorophenyl)pyridin-4-yl)methyl)-9H-purin-6-amine] | – | – | 8.00 to 9.00 | 6.07 |
| CCc1cccc([C@@]2(N)CCCN(c3cnc(-c4ccc(F)cc4)cc3Cn3cnc4c(N)ncnc43)C2)n1 [Example 202, (R)-9-((5-(3-amino-3-(6-ethylpyridin-2-yl)piperidin-1-yl)-2-(4-fluorophenyl)pyridin-4-yl)methyl)-9H-purin-6-amine] | – | – | 8.00 to 9.00 | 6.58 |
| Nc1ncnc2c1ncn2Cc1cc(-c2ccc(F)cc2)ncc1N1CCC[C@](N)(c2cccc(C(F)F)n2)C1 [Example 203, (R)-9-((5-(3-amino-3-(6-(difluoromethyl)pyridin-2-yl)piperidin-1-yl)-2-(4-fluorophenyl)pyridin-4-yl)methyl)-9H-purin-6-amine] | – | – | 8.00 to 9.00 | 6.41 |
| Nc1ncnc2c1ncn2Cc1cc(-c2ccc(F)cc2)ncc1N1CCCC(N)(c2cccc(Cl)n2)C1 (stereo not drawn) [Example 205, 9-((5-(3-amino-3-(6-chloropyridin-2-yl)piperidin-1-yl)-2-(4-fluorophenyl)pyridin-4-yl)methyl)-9H-purin-6-amine] | – | – | 8.00 to 9.00 | 6.20 |
| Nc1ncnc2c1ncn2Cc1cc(-c2ccc(F)c(F)c2)ncc1N1CCC[C@](N)(c2ccncc2)C1 [Example 245, (S)-9-((5-(3-amino-3-(pyridin-4-yl)piperidin-1-yl)-2-(3,4-difluorophenyl)pyridin-4-yl)methyl)-9H-purin-6-amine] | – | – | 6.00 to 8.00 | 5.67 |
| Nc1ncnc2c1ncn2Cc1cc(-c2ccc(F)c(F)c2)ncc1N1CCC[C@](N)(c2ccnc(Cl)c2)C1 [Example 246, (S)-9-((5-(3-amino-3-(2-chloropyridin-4-yl)piperidin-1-yl)-2-(3,4-difluorophenyl)pyridin-4-yl)methyl)-9H-purin-6-amine] | – | – | 6.00 to 8.00 | 4.78 |
| Cc1cc([C@@]2(N)CCCN(c3cnc(-c4ccc(F)c(F)c4)cc3Cn3cnc4c(N)ncnc43)C2)ccn1 [Example 247, (S)-9-((5-(3-amino-3-(2-methylpyridin-4-yl)piperidin-1-yl)-2-(3,4-difluorophenyl)pyridin-4-yl)methyl)-9H-purin-6-amine] | – | – | 6.00 to 8.00 | 4.48 |
| Nc1ncnc2c1ncn2Cc1cc(-c2ccc(F)c(F)c2)ncc1N1CCC[C@](N)(c2ccncc2F)C1 [Example 248, (S)-9-((5-(3-amino-3-(3-fluoropyridin-4-yl)piperidin-1-yl)-2-(3,4-difluorophenyl)pyridin-4-yl)methyl)-9H-purin-6-amine] | – | – | 6.00 to 8.00 | 5.54 |
| CCc1cccc([C@@]2(N)CCCN(c3cnc(C4CC4)cc3Cn3cnc4c(N)nccc43)C2)n1 [Example 252, (R)-1-((5-(3-amino-3-(6-ethylpyridin-2-yl)piperidin-1-yl)-2-cyclopropylpyridin-4-yl)methyl)-1H-imidazo[4,5-c]pyridin-4-amine] | – | – | 6.00 to 8.00 | 5.14 |
| Nc1ncnc2c1ncn2Cc1cc(-c2ccc(F)c(F)c2)ncc1N1CCCC(N)(c2cncc(Cl)n2)C1 (stereo not drawn) [Example 254, 9-((5-(3-amino-3-(6-chloropyrazin-2-yl)piperidin-1-yl)-2-(3,4-difluorophenyl)pyridin-4-yl)methyl)-9H-purin-6-amine] | – | – | 6.00 to 8.00 | 5.81 |
| Nc1ncnc2c1ncn2Cc1cc(-c2ccc(F)c(F)c2)ncc1N1CCCC(N)(c2cnccn2)C1 (stereo not drawn) [Example 259, 9-((5-(3-amino-3-(pyrazin-2-yl)piperidin-1-yl)-2-(3,4-difluorophenyl)pyridin-4-yl)methyl)-9H-purin-6-amine] | – | – | 6.00 to 8.00 | 5.45 |
| Nc1nccc2c1ncn2Cc1cc(-c2ccc(F)c(F)c2)ncc1N1CCC[C@](N)(c2cccc(C(F)F)n2)C1 [Example 260, (R)-1-((5-(3-amino-3-(6-(difluoromethyl)pyridin-2-yl)piperidin-1-yl)-2-(3,4-difluorophenyl)pyridin-4-yl)methyl)-1H-imidazo[4,5-c]pyridin-4-amine] | – | – | 6.00 to 8.00 | 5.82 |
| Cc1cccc([C@@]2(N)CCCN(c3cnc(-c4ccc(F)cc4)cc3Cn3cnc4c(N)nccc43)C2)n1 [Example 261, (R)-1-((5-(3-amino-3-(6-methylpyridin-2-yl)piperidin-1-yl)-2-(4-fluorophenyl)pyridin-4-yl)methyl)-1H-imidazo[4,5-c]pyridin-4-amine] | – | – | 8.00 to 9.00 | 6.63 |
| Nc1nccc2c1ncn2Cc1cc(-c2ccc(F)c(F)c2)ncc1N1CCCC(N)(c2cccc(F)n2)C1 (stereo not drawn) [Example 262, 1-((5-(3-amino-3-(6-fluoropyridin-2-yl)piperidin-1-yl)-2-(3,4-difluorophenyl)pyridin-4-yl)methyl)-1H-imidazo[4,5-c]pyridin-4-amine] | – | – | 6.00 to 8.00 | 5.88 |
| Cc1cccc(C2(N)CCCN(c3cnc(C4CC4)cc3Cn3cnc4c(N)nccc43)C2)n1 (stereo not drawn) [Example 263, 1-((5-(3-amino-3-(6-methylpyridin-2-yl)piperidin-1-yl)-2-cyclopropylpyridin-4-yl)methyl)-1H-imidazo[4,5-c]pyridin-4-amine] | – | – | 6.00 to 8.00 | 5.38 |
| Nc1nccc2c1ncn2Cc1cc(C2CC2)ncc1N1CCC[C@](N)(c2cccc(C(F)F)n2)C1 [Example 264, (R)-1-((5-(3-amino-3-(6-(difluoromethyl)pyridin-2-yl)piperidin-1-yl)-2-cyclopropylpyridin-4-yl)methyl)-1H-imidazo[4,5-c]pyridin-4-amine] | – | – | 6.00 to 8.00 | 5.02 |
| Nc1nccc2c1ncn2Cc1cc(-c2ccc(F)cc2)ncc1N1CCCC(N)(c2ccccn2)C1 (stereo not drawn) [Example 266, 1-((5-(3-amino-3-(pyridin-2-yl)piperidin-1-yl)-2-(4-fluorophenyl)pyridin-4-yl)methyl)-1H-imidazo[4,5-c]pyridin-4-amine] | – | – | 8.00 to 9.00 | 6.36 |
| Nc1nccc2c1ncn2Cc1cc(C2CCC2)ncc1N1CCCC(N)(c2cccc(Cl)n2)C1 (stereo not drawn) [Example 267, 1-((5-(3-amino-3-(6-chloropyridin-2-yl)piperidin-1-yl)-2-cyclobutylpyridin-4-yl)methyl)-1H-imidazo[4,5-c]pyridin-4-amine] | – | – | 6.00 to 8.00 | 5.72 |
| Cn1cc([C@@]2(N)CCCN(c3cnc(-c4ccc(F)c(F)c4)cc3Cn3cnc4c(N)ncnc43)C2)cn1 [Example 269, (S)-9-((5-(3-amino-3-(1-methyl-1H-pyrazol-4-yl)piperidin-1-yl)-2-(3,4-difluorophenyl)pyridin-4-yl)methyl)-9H-purin-6-amine] | – | – | 8.00 to 9.00 | 5.25 |
